Results reported in patent publication US20260308158A1, “TARGETING RNAS ASSOCIATED WITH TAUOPATHIES WITH SMALL MOLECULES” (University of Florida Research Foundation, Incorporated, priority 2023, published 2026).

What was measured:
[1] = Body weight / tolerability, htau mice; assay type: in vivo, htau mouse; conditions: 100 mg/kg p.o. q.o.d., 20 days
From the text: hTau Mice Studies. htau mice and WT mice (C57BL/6J) were purchased from Jackson Laboratories. htau mice were maintained in-house through breeding between htau+/− mice. Genotype was confirmed by PCR amplification as previously described.^18 Only homozygous mice were used in in vivo studies. Mice were randomly assigned to a treatment group, which were age- and gender-matched (n=X). In these studies, mice were >9 months of age since cognitive and physiological impairments in htau mice was age-dependent and were not presented in young mice (<4 months) with early-stage tau pathology.^42 Mice were orally administered vehicle (5/5/90 DMSO/Tween-80/H2O) or 100 mg/kg of 2 in the same formulation every other day (q.o.d.). During the treatment period, nesting activity was assessed, as describe in Nesting Activity below. After 20 days, the mice were euthanized (in accordance with guidelines provided by the American Veterinarian Medical Association), and the brain was harvested for analysis. One hemisphere of the brain was frozen at −80° C. for RT-qPCR analyses while the other was used for histological studies.

[2] = tested on: MAPT exon 10 splicing in htau mice; experiment: MAPT exon 10 splicing in brain of htau mice (RT-qPCR); assay type: in vivo, human MAPT in htau mouse; conditions: 100 mg/kg p.o. q.o.d., 20 days
Description: RNA Isolation and Real-Time Quantitative PCR (RT-qPCR). HeLa cells were treated as described in the Luciferase Reporter assay to Study Exon 10 Alternative Splicing. LAN5 cells were seeded in 12-well plates at 0.2×10^6 cells per well, treated with compound or ASO, and incubated for 48 h. Compound stocks prepared in DMSO and ASO stocks prepared in water were diluted in growth medium and added to cells. Total RNA was extracted from cells and analyzed via RT-qPCR to determine levels of 3R and 4R tau mRNA. In brief, the cells were washed with 1×DPBS and then lysed in the well using 300 μL of Lysis Buffer provided in a Quick-RNA MiniPrep kit (Zymo Research), which was used to extract total RNA per the manufacturer's protocol including the on-column DNase I digestion. The concentration of total RNA was measured by NanoDrop 2000 (Thermo Fisher Scientific). Only samples with OD260/OD280>1.8 were carried forward for analysis. Reverse transcription (RT) was carried out on 200 ng of total RNA using a qScript cDNA synthesis kit (QuantaBio) in a total volume of 10 μL according to the manufacturer's protocol. An Applied Biosystems QS5 384-well PCR system was used to complete qPCR reactions with Power SYBR Green Master Mix (Life Technologies), 600 nM each primer (Table S3), 20 ng of cDNA (1 μL of the RT reaction), in a total volume of 33 μL. Technical triplicates (10 μL each) were aliquoted into 384-well qPCR plates (Applied biosystems, 4483285). Subsequent qPCR analysis was performed using an Applied Biosystems QS5 384-well PCR system (software v.1.3.0). 4R/3R ratio were analyzed using ΔΔCt method using Equation 2: […]
hTau Mice Studies. htau mice and WT mice (C57BL/6J) were purchased from Jackson Laboratories. htau mice were maintained in-house through breeding between htau+/− mice. Genotype was confirmed by PCR amplification as previously described.^18 Only homozygous mice were used in in vivo studies. Mice were randomly assigned to a treatment group, which were age- and gender-matched (n=X). […] During the treatment period, nesting activity was assessed, as describe in Nesting Activity below. […]

[3] = tested on: DDPAC MAPT mini-gene pre-mRNA; experiment: Chem-CLIP / C-Chem-CLIP in HeLa cells transfected with DDPAC mini-gene; assay type: cell-based; conditions: HeLa, DDPAC mini-gene
Description: Measuring Cellular Occupancy by Chem-CLIP and C-Chem-CLIP. LAN5 cells were grown to ~80% confluency in 100 mm diameter dishes. HeLa cells were transfected as described in the Luciferase Reporter Assay to Study Exon 10 Alternative Splicing except they were re-plated in 100 mm diameter dishes and grown to ~80% confluency (~1 day). The cells were then treated with 1.5 μM of 3 or 4 for 12 h. For C-Chem-CLIP, dilutions of competing compounds 1 or 2 were pre-incubated with cells for 12 h prior to adding 3. After addition of 3, the cells were incubated for an additional 12 h. After the treatment period, whether for Chem-CLIP or C-Chem-CLIP studies, the cells were washed with 10 mL of 1×DPBS. Ice-cold 1×DPBS (10 mL) was then added to the plate followed by irradiation with 365 nm light in a UV Stratalinker 2400 (Stratagene). Cells were scraped with a cell scraper, transferred to a 15 mL conical vial, and collected by centrifugation. Total RNA was extracted using TRIzol LS Reagent (Invitrogen) per the manufacturer's protocol. […]
RT-qPCR was performed on RNA samples before and after pull-down as described in Real-Time Quantitative PCR to enable calculation of fold enrichment in the pulled down samples. Relative fold enrichment of tau pre-mRNA was measured using Equation 3: […]

[4] = tested on: DDPAC MAPT exon 10 mini-gene luciferase reporter; experiment: Luciferase reporter assay of exon 10 splicing, DDPAC mini-gene in HeLa cells; assay type: cell-based
Description: Luciferase-reporter Assay to Study Exon 10 Alternative Splicing. The exon 10 mini-genes, both WT and DDPAC and mutant thereof, fused to firefly luciferase, have been previously described.^18 HeLa cells were seeded in 60 mm diameter dishes and incubated for 12-16 h to 70% confluency. They were then transfected with WT, WT+I17T, DDPAC, or DDPAC+I17T luciferase reporter minigenes using JetPrime (Polyplus Transfection) per the manufacturer's recommended protocol and incubated for 4 h. After transfection, the cells were collected by trypsinization and re-seeded in 96-well plates at 0.2×10^5 cells per well, followed by treatment of compounds after 4 h. Compound stocks prepared in DMSO were diluted in growth medium and added to cells with final DMSO concentration at 0.1% (v/v). After a 48 h treatment period, the cells were washed with 1× DPBS. Each well was added with a mixture of 10 μL WST-1 reagent and 90 μL of growth medium. After incubation at 37° C. for 45 min, absorbance was measured at 450 and 690 nm. A690 as background was subtracted from A450 to obtain A450′. After removal of WST-1/DMEM from wells, the cells were washed again with 1×DPBS and treated with 100 μL of One-Glo EX reagent (Promega, E8110) per well. The plate was incubated at room temperature for 20 min and the luminescence was measured with a […] plate reader (1000 ms integration time). The resulted luminescence was normalized to A450′.

COc1cc(N)ncc1CCCN(C)CCCn1cnc2c3ccccc3n(C)c2c1=O [Compound 2, 3-(3-((3-(6-amino-4-methoxypyridin-3-yl)propyl)(methyl)amino)propyl)-5-methyl-3,5-dihydro-4H-pyrimido[5,4-b]indol-4-one]
change in weight [1]: no change in the weight
tolerability [1]: well tolerated
total human MAPT transcript levels ([2]; htau mice): without alteration of total human MAPT transcript levels
reduction of 4R/3R ratio ([2]; htau mice brain): 38±5%
reduction of PSI10 ([2]; htau mice brain): 12±2%
competition of the interaction of 3 with reporter [3]: competed dose dependently
improvement in cellular luciferase reporter assay compared to 1 ([4]; 2 vs 1): at least 10 fold
exclusion of exon 10 among eight conjugates (reduction of luciferase activity) ([4]; DDPAC mini-gene, HeLa): excluded exon 10 to the greatest extent
IC50 ([4]; Homo sapiens, HeLa, DDPAC mini-gene, 48 h, read-out: IC50, inhibition of luciferase activity (exon 10 inclusion)): 600 ± 300 nM
